Target: T1, human Nav1.8 (hNav1.8) ion channel (Homo sapiens, UniProt Q9Y5Y9)
T1 construct: expressed in transfected cells; host or cells: HEK293
Assay: Nav1.8 channel inhibition, estimated IC50 (one or more of: fluorescence inhibition assay, PatchXpress, IonFlux HT automated patch clamp)
Type: cell-based
Conditions: HEK293 cells stably expressing hNav1.8; method used per compound not stated; read-out: Activity range (estimated IC50)
Protocol: The ability of pyridine carboxamide derivatives exemplified above to inhibit the Nav1.8 channel was determined using one or more of the methods described below.
HEK Nav1.8 β1/β2 Stably Expressing Cell Line
A HEK293 cell line stably expressing the human Nav1.8 (hNav1.8) ion channel with β1/β2 subunits was constructed. The cell line is suitable for IC50 determination in fluorescence and electrophysiological based assays. It is also suitable to form mechanism of action pharmacology studies in electrophysiological assays. HEK293 Nav 1.8 cells are grown as adherent monolayers in DMEM/high glucose media, 10% fetal bovine serum, Na pyruvate (2 mM), Hepes (10 mM) with selection agents G418 (400 mg/L) and puromycin (0.5 mg/L) at 37 degrees C., 10% CO2.
Nav 1.8 Fluorescence Inhibition Assay
Compounds were made up to or supplied as a 10-mM stock solution using DMSO as the vehicle. Concentration-response curves were generated using a Matrix multichannel pipettor. Compound source plates were made by diluting 10 mM compound stocks to create 500 μM (100×) solutions in DMSO in 96-well v-bottom plates. Compounds were then serially diluted in 100% DMSO to generate a 5 point, 4-fold dilution scheme dose response curve. 2 μL of the 100× dose response curves was then added to preincubation and stimulation assay plates. 100 μL of pre-incubation buffer and 200 μL of stimulation buffer were then added to the plates resulting in a final assay test concentration range of 5 μM to 0.02 μM with a final DMSO concentration of 1%.
On the day of assay, plates were washed to remove cell culture media using 2K EBSS buffer (135 mM NaCl, 2 mM KCl, 5 mM Glucose, 2 mM CaCl2), 1 mM MgCl2, 10 mM HEPES, pH 7.4). The Na-sensitive fluorescent dye, Asante Natrium Green-2 (ANG-2) is incubated for 60 min to allow equilibration and then washed with 2K EBSS. Plates are the transferred to a fluorescence plate reader (FLIPR™, Molecular Devices) for fluorescence measurement using an excitation wavelength of 490 nm and an emission wavelength of 565 nm. Compounds are pre-incubated at for 5 min at final test concentration in the presence of ouabain (30 μM) to inhibit Na+ efflux through Na+/K+ exchanger. Following the pre-incubation phase, hNav1.8 channels are stimulated with 10 μM of the pyrethroid deltamethrin to prevent channel inactivation. The assay was run for 15 min with vehicle and 30 μM tetracaine serving as negative and positive controls, respectively. The peak change in fluorescence relative to negative and positive control wells was calculated and fit with a logistic equation to determine IC50.
PatchXpress Nav 1.8 Inhibition Assay
HEK-Nav1.8 β1/β2 cells were recorded in whole cell patch-clamp using the PatchXpress automated patch clamp platforms (Molecular Devices). Cells suspensions were obtained by trypsinization of adherent monolayers, followed by gentle rocking for minimally 30 min. Compounds were prepared from 10 mM DMSO stocks.
Nav1.8 channel variants were evaluated using Protocol 1 (FIG. 2) in which cells were initially voltage clamped at a holding potential of −100 mV to maintain Nav1.8 in a closed resting state. After current amplitude becomes stable, the mid-point voltage of steady state inactivation was determined for each cell using a series of 5 sec conditioning steps to increasingly depolarized voltages (−100 to 0 mV) The holding potential was then reset to a voltage that produces ˜50% inactivation (Vhalf−set automatically via PatchXpress scripts) so that closed and inactivated channel inhibition can be assessed. Protocol 1 was run at a frequency of 0.1 Hz until current amplitude is steady (automatically determined by PatchXpress scripts). The effect of test reagent on Nav current amplitude was monitored using custom PatchXpress stability scripts which determines the timing of compound addition and washout. Data were processed and analyzed using DataXpress 2.0 (Molecular Devices). […]

T1 sequence (Q9Y5Y9 whole entry): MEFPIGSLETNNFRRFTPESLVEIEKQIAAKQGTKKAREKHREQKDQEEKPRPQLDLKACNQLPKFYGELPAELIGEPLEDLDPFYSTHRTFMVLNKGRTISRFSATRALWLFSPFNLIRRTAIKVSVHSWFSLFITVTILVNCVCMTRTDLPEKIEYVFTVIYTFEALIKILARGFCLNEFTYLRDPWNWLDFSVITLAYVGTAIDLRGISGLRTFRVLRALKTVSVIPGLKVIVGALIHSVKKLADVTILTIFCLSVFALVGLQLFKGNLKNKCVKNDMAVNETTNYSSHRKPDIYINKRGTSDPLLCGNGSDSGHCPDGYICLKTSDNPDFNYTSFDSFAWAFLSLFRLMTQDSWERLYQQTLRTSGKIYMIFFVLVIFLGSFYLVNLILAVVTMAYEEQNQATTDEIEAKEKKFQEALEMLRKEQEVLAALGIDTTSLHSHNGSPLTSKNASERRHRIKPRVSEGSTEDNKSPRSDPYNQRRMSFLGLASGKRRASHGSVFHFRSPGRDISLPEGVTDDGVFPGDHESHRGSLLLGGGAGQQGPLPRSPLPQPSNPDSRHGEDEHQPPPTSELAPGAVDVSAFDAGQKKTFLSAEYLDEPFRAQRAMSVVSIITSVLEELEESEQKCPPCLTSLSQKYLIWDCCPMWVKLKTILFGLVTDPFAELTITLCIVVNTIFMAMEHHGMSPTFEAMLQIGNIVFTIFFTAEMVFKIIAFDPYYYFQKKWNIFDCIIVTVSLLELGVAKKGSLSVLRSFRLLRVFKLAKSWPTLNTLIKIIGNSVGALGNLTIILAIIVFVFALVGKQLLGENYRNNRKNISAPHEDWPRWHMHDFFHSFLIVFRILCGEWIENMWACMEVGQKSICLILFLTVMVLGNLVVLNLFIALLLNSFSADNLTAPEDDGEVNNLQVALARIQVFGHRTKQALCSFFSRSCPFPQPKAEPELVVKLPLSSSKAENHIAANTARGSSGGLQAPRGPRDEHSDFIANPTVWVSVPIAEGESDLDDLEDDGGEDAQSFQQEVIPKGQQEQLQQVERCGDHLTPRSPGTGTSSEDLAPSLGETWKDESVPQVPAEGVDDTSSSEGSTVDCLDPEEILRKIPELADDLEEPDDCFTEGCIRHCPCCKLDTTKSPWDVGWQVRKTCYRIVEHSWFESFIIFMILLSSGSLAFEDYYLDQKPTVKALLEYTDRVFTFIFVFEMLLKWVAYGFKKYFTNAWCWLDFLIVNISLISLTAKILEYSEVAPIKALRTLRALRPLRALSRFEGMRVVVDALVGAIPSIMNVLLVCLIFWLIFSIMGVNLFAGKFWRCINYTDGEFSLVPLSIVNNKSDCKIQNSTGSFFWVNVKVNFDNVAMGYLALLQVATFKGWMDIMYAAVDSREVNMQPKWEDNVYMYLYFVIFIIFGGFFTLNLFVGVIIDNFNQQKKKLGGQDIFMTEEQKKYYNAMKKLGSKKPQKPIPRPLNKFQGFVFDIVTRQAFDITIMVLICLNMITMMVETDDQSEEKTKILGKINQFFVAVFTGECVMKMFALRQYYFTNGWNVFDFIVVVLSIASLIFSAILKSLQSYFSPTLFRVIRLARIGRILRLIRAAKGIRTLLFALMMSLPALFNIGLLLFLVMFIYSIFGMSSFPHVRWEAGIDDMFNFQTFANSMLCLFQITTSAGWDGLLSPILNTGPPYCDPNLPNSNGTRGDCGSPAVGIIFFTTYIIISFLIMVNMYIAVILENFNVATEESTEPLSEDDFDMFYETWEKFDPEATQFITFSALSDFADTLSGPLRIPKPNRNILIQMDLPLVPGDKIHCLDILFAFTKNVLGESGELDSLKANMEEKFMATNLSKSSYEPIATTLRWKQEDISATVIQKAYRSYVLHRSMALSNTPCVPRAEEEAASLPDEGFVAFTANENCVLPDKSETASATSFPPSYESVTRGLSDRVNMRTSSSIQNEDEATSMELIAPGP

Structure (SMILES): CS(=N)(=O)c1cccc(NC(=O)c2cc(C(F)(F)F)cnc2Oc2ccc(OC(F)(F)F)cc2)c1 (single isomer, unassigned) [Example 130, N-[3-(methylsulfonimidoyl)phenyl]-2-[4-(trifluoromethoxy)phenoxy]-5-(trifluoromethyl)pyridine-3-carboxamide]
- IC50: < 500 nM

Structure (SMILES): CS(=N)(=O)c1cccc(NC(=O)c2cc(C(F)(F)F)cnc2Oc2ccc(OC(F)(F)F)cc2)c1 (single isomer, unassigned) [Example 131, N-[3-(methylsulfonimidoyl)phenyl]-2-[4-(trifluoromethoxy)phenoxy]-5-(trifluoromethyl)pyridine-3-carboxamide]
- IC50: < 500 nM

Structure (SMILES): COc1cc(F)ccc1Oc1ncc(C(F)(F)F)cc1C(=O)Nc1ccc2ncsc2c1 [Example 1, N-(1,3-benzothiazol-6-yl)-2-(4-fluoro-2-methoxy-phenoxy)-5-(trifluoromethyl)pyridine-3-carboxamide]
- IC50: > 1000 nM

Structure (SMILES): COc1cc(F)ccc1Oc1ncc(C(F)(F)F)cc1C(=O)Nc1cccc(N2CCOCC2)c1 [Example 2, 2-(4-fluoro-2-methoxy-phenoxy)-N-(3-morpholinophenyl)-5-(trifluoromethyl)pyridine-3-carboxamide]
- IC50: > 1000 nM

Structure (SMILES): COc1cc(F)ccc1Oc1ncc(C(F)(F)F)cc1C(=O)Nc1cccc(C#N)c1 [Example 3, N-(3-cyanophenyl)-2-(4-fluoro-2-methoxy-phenoxy)-5-(trifluoromethyl)pyridine-3-carboxamide]
- IC50: < 500 nM

Structure (SMILES): COc1cc(F)ccc1Oc1ncc(C(F)(F)F)cc1C(=O)Nc1cccnc1 [Example 4, 2-(4-fluoro-2-methoxy-phenoxy)-N-(3-pyridyl)-5-(trifluoromethyl)pyridine-3-carboxamide]
- IC50: > 1000 nM

Structure (SMILES): COc1cc(F)ccc1Oc1ncc(C(F)(F)F)cc1C(=O)Nc1ccc(C#N)cc1 [Example 5, N-(4-cyanophenyl)-2-(4-fluoro-2-methoxy-phenoxy)-5-(trifluoromethyl)pyridine-3-carboxamide]
- IC50: > 1000 nM

Structure (SMILES): COc1cc(F)ccc1Oc1ncc(C(F)(F)F)cc1C(=O)Nc1ccncc1 [Example 6, 2-(4-fluoro-2-methoxy-phenoxy)-N-(4-pyridyl)-5-(trifluoromethyl)pyridine-3-carboxamide]
- IC50: 500 to 1000 nM

Structure (SMILES): COc1cc(F)ccc1Oc1ncc(C(F)(F)F)cc1C(=O)Nc1ccc(C#N)nc1 [Example 7, N-(6-cyano-3-pyridyl)-2-(4-fluoro-2-methoxy-phenoxy)-5-(trifluoromethyl)pyridine-3-carboxamide]
- IC50: > 1000 nM

Structure (SMILES): COc1cc(F)ccc1Oc1ncc(C(F)(F)F)cc1C(=O)Nc1cccc([S+](C)[O-])c1 (stereo not drawn) [Example 8, 2-(4-fluoro-2-methoxy-phenoxy)-N-(3-methylsulfinylphenyl)-5-(trifluoromethyl)pyridine-3-carboxamide]
- IC50: < 500 nM

Structure (SMILES): COc1cc(F)ccc1Oc1ncc(C(F)(F)F)cc1C(=O)Nc1cccc(-c2cnco2)c1 [Example 9, 2-(4-fluoro-2-methoxy-phenoxy)-N-(3-oxazol-5-ylphenyl)-5-(trifluoromethyl)pyridine-3-carboxamide]
- IC50: > 1000 nM

Structure (SMILES): COc1cc(F)ccc1Oc1ncc(C(F)(F)F)cc1C(=O)Nc1cccc(S(=O)(=O)N(C)C)c1 [Example 10, N-[3-(dimethylsulfamoyl)phenyl]-2-(4-fluoro-2-methoxy-phenoxy)-5-(trifluoromethyl)pyridine-3-carboxamide]
- IC50: < 500 nM

Structure (SMILES): COc1cc(F)ccc1Oc1ncc(C(F)(F)F)cc1C(=O)Nc1nc2ccccc2s1 [Example 11, N-(1,3-benzothiazol-2-yl)-2-(4-fluoro-2-methoxy-phenoxy)-5-(trifluoromethyl)pyridine-3-carboxamide]
- IC50: > 1000 nM

Structure (SMILES): COc1cc(F)ccc1Oc1ncc(C(F)(F)F)cc1C(=O)Nc1ccncn1 [Example 12, 2-(4-fluoro-2-methoxy-phenoxy)-N-pyrimidin-4-yl-5-(trifluoromethyl)pyridine-3-carboxamide]
- IC50: < 500 nM

Structure (SMILES): COc1cc(F)ccc1Oc1ncc(C(F)(F)F)cc1C(=O)Nc1cccc(S(=O)(=O)C(F)(F)F)c1 [Example 13, 2-(4-fluoro-2-methoxy-phenoxy)-5-(trifluoromethyl)-N-[3-(trifluoromethylsulfonyl)phenyl]pyridine-3-carboxamide]
- IC50: > 1000 nM

Structure (SMILES): COc1cc(F)ccc1Oc1ncc(C(F)(F)F)cc1C(=O)Nc1cccc(S(C)(=N)=O)c1 (stereo not drawn) [Example 14, 2-(4-fluoro-2-methoxy-phenoxy)-N-[3-(methylsulfonimidoyl)phenyl]-5-(trifluoromethyl)pyridine-3-carboxamide]
- IC50: < 500 nM

Structure (SMILES): COc1cc(NC(=O)c2cc(C(F)(F)F)cnc2Oc2ccc(F)cc2OC)ccn1 [Example 15, 2-(4-fluoro-2-methoxy-phenoxy)-N-(2-methoxy-4-pyridyl)-5-(trifluoromethyl)pyridine-3-carboxamide]
- IC50: > 1000 nM

Structure (SMILES): CN=S(C)(=O)c1cccc(NC(=O)c2cc(C(F)(F)F)cnc2Oc2ccc(F)cc2OC)c1 (stereo not drawn) [Example 16, N-[3-(N,S-dimethylsulfonimidoyl)phenyl]-2-(4-fluoro-2-methoxy-phenoxy)-5-(trifluoromethyl)pyridine-3-carboxamide]
- IC50: < 500 nM

Structure (SMILES): COc1cc(F)ccc1Oc1ncc(C(F)(F)F)cc1C(=O)Nc1ccnc(C)c1 [Example 17, 2-(4-fluoro-2-methoxy-phenoxy)-N-(2-methyl-4-pyridyl)-5-(trifluoromethyl)pyridine-3-carboxamide]
- IC50: > 1000 nM

Structure (SMILES): COc1cc(F)ccc1Oc1ncc(C(F)(F)F)cc1C(=O)Nc1ccc(C)nc1 [Example 18, 2-(4-fluoro-2-methoxy-phenoxy)-N-(6-methyl-3-pyridyl)-5-(trifluoromethyl)pyridine-3-carboxamide]
- IC50: > 1000 nM

Structure (SMILES): COc1cc(F)ccc1Oc1ncc(C(F)(F)F)cc1C(=O)Nc1ccnnc1 [Example 19, 2-(4-fluoro-2-methoxy-phenoxy)-N-pyridazin-4-yl-5-(trifluoromethyl)pyridine-3-carboxamide]
- IC50: 500 to 1000 nM

Structure (SMILES): COc1cc(F)ccc1Oc1ncc(C(F)(F)F)cc1C(=O)Nc1cccc(N=S(C)(C)=O)c1 [Example 20, N-[3-[[dimethyl(oxo)-λ^6-sulfanylidene]amino]phenyl]-2-(4-fluoro-2-methoxy-phenoxy)-5-(trifluoromethyl)pyridine-3-carboxamide]
- IC50: > 1000 nM

Structure (SMILES): CS(=O)(=O)c1cccc(NC(=O)c2cc(C(F)(F)F)cnc2Oc2ccc(Cl)cc2Cl)c1 [Example 21, 2-(2,4-dichlorophenoxy)-N-(3-methylsulfonylphenyl)-5-(trifluoromethyl)pyridine-3-carboxamide]
- IC50: < 500 nM

Structure (SMILES): Cc1ccc(Oc2ncc(C(F)(F)F)cc2C(=O)Nc2cccc(S(C)(=O)=O)c2)c(C)c1 [Example 22, 2-(2,4-dimethylphenoxy)-N-(3-methylsulfonylphenyl)-5-(trifluoromethyl)pyridine-3-carboxamide]
- IC50: > 1000 nM

Structure (SMILES): COc1ccc(Oc2ncc(C(F)(F)F)cc2C(=O)Nc2cccc(S(C)(=O)=O)c2)c(Cl)c1 [Example 23, 2-(2-chloro-4-methoxy-phenoxy)-N-(3-methylsulfonylphenyl)-5-(trifluoromethyl)pyridine-3-carboxamide]
- IC50: < 500 nM

Structure (SMILES): CCCc1ccccc1Oc1ncc(C(F)(F)F)cc1C(=O)Nc1cccc(S(C)(=O)=O)c1 [Example 24, N-(3-methylsulfonylphenyl)-2-(2-propylphenoxy)-5-(trifluoromethyl)pyridine-3-carboxamide]
- IC50: > 1000 nM

Structure (SMILES): COc1cc(C)ccc1Oc1ncc(C(F)(F)F)cc1C(=O)Nc1cccc(S(C)(=O)=O)c1 [Example 25, 2-(2-methoxy-4-methyl-phenoxy)-N-(3-methylsulfonylphenyl)-5-(trifluoromethyl)pyridine-3-carboxamide]
- IC50: > 1000 nM

Reference: patent US12234221B2, “Pyridine carboxamide compounds for inhibiting NAV1.8” (Lieber Institute, Inc., priority 2018, dated 2025)
